Data taken from article PMC2397535 (Breast Cancer Research : BCR, 2008).
Read-outs that look alike come from different tables or passages of the source.

Key:
MDA-MB-157 = assay: antiproliferative effect (GI50), breast cancer cell line; format: cell-based; settings: Homo sapiens
MDA-MB-468 = assay: as above; format: cell-based; settings: Homo sapiens
SkBr3 = assay: as above; format: cell-based; settings: Homo sapiens, SK-BR-3
MCF-7 = assay: as above; format: cell-based; settings: Homo sapiens, MCF7
[1] = test system: panel of human breast cancer cell lines; assay: antiproliferative effect, panel of seven breast cancer cell lines (summary values); format: cell-based
MAXF 1322 = assay: clonogenic (soft agar colony formation) assay, primary breast tumor; format: cell-based, human
MAXF 1384 = assay: as above; format: cell-based, human
MAXF 401 = assay: as above; format: cell-based, human
MAXF 574 = assay: as above; format: cell-based, human
[2] = test system: human breast cancer explants; assay: clonogenic assay, six human breast cancer explants (summary values); format: cell-based
phospho-AKT (Ser473) = assay: AKT phosphorylation in BT-474 xenografts (Western blot); format: in vivo, mice
Experimental: To assess total levels of AKT, phosphorylated AKT, β-tubulin, and ERBB2 in the cell extracts, 20 to 30 μg of total protein was resolved by the appropriate-percentage SDS-PAGE. The following antibodies were used for immunoblotting: anti-AKT (cat. no. 9272, rabbit polyclonal; Cell Signaling Technology, Inc.), anti-phospho-AKT (Ser473) (cat. no. 9271, rabbit polyclonal; Cell Signaling Technology, Inc.), anti-β-tubulin (cat. no. T 4026, mouse monoclonal, clone Tub2.1; Sigma-Aldrich, St. Louis, MO, USA), and anti-ERBB2 (cat. no. 28-0004, rabbit polyclonal; Zymed Laboratories Inc., now part of Invitrogen Corporation, Carlsbad, CA, USA). Bound antibodies on PVDF immunoblots were detected by Amersham ECL (Amersham, now part of GE Healthcare, Little Chalfont, Buckinghamshire, UK) or infrared fluorescence detection (LI-COR Biosciences, Lincoln, NE, USA).
(§1) Invasive procedures were performed under Forene anesthesia. […] The animals were fed food and water ad libitum.

HSP70 = HSP70 induction in BT-474 xenografts (immunohistochemistry); format: in vivo, mice; settings: single 50 mg/kg dose
Experimental: Formalin-fixed paraffin-embedded tissue sections were stained using the Ventana Discovery System (Ventana Medical Systems, Inc., Tucson, AZ, USA). Deparaffinization of tissue sections and heat-induced epitope retrieval using Standard Cell Conditioning Solution 1 (Ventana Medical Systems, Inc.) were performed directly on the System. A rabbit anti-human ERBB2 (HER2) monoclonal antibody (Lab Vision Corporation, Fremont, CA, USA) and a mouse anti-human HSP70 (Assay Designs, Inc.) were prepared in Dako diluent (Dako North America, Inc., Carpinteria, CA, USA) and used at concentrations of 2 ug/mL for 32 minutes and 10 ug/mL for 60 minutes, respectively. For HSP70 staining, slides were incubated with a biotin-labeled anti-mouse IgG1 (Research Diagnostics, Inc., now known as Fitzgerald Industries International, Concord, MA, USA) at a concentration of 1.25 ug/mL diluted in M.O.M. (Mouse-on-Mouse) (Vector Laboratories, Peterborough, UK). Detection using a 3,3'-diaminobenzadine reaction was performed on the section by using the Ventana OmniMAP DAB for the ERBB2 antibody and the Ventana DAB Map reagent for the HSP70 antibody (Ventana Medical Systems, Inc.). Each tissue section was subsequently counterstained with hematoxylin. To ensure antibody specificity, consecutive tissue sections were incubated with normal isotype-matched immunoglobulins (rabbit IgG; Jackson ImmunoResearch Laboratories, Inc., West Grove, PA, USA, and mouse IgG1; Lab Vision Corporation) used at concentrations equivalent to Her2 and HSP70 antibodies. Stained tissue sections were quantified using the Aperio Digital Pathology System (Aperio Technologies, Inc., Vista, CA, USA).
as §1

CCNC(=O)c1noc(-c2cc(C(C)C)c(O)cc2O)c1-c1ccc(CN2CCOCC2)cc1 [NVP-AUY922] showed a GI50 (MDA-MB-157) of 126 ± 37 nM, a GI50 (MDA-MB-468) of 6.3 ± 2.6 nM and a GI50 (SkBr3) of 3.3 ± 0.9 nM. The GI50 (MCF-7) was 8.8 ± 1.8 nM, the GI50 ([1]; seven cell lines, read-out: GI50 values, range over human breast cancer cell lines) was 3 to 126 nM and the GI50 ([1]; six of the seven breast cancer cell lines, read-out: average GI50 value) was 5.4 nM. For the same compound, the “IC70 (colony formation)” value (MAXF 1322) was 48 nM, the IC50 (MAXF 1322; Homo sapiens) was 29 nM and the “IC70 (colony formation)” value (MAXF 1384) was 477 nM. The IC50 (MAXF 1384; Homo sapiens) was 209 nM, the “IC70 (colony formation)” value (MAXF 401) was 295 nM and the IC50 (MAXF 401; Homo sapiens, MAXF401) was 78 nM. For the same compound, the “IC70 (colony formation)” value (MAXF 574) was >10,000 nM, the IC50 (MAXF 574; Homo sapiens) was greater than 10000 nM and the GI50 ([2]; Homo sapiens, one highly resistant tumor explant, highest concentration evaluated, read-out: GI50) was greater than 10000 nM. The “average GI70” value ([2]; five out of the six human breast cancer explants) was 379 nM, the GI50 ([2]; five out of the six human breast cancer explants, read-out: average GI50) was 191 nM and the phospho-AKT levels (phospho-AKT (Ser473); single dose 30 mg/kg i.v.) was “reductions in phospho-AKT levels”. For the same compound, the phospho-AKT levels (phospho-AKT (Ser473); single i.v. dose 25 mg/kg, tumors dissected 6 hours later) was “reduction in phospho-AKT levels”, the “HSP70 staining intensity, recovery” value (HSP70) was “gradually returned to baseline over one week” and the “time point of peak HSP70 staining intensity” value (HSP70) was 24 h. For the same compound, the HSP70 staining intensity (HSP70; 6 hours after administration) was “strongly increased HSP70 staining”.
